Data from paper PMC7531004, “Discovery of gramicidin A analogues with altered activities by multidimensional screening of a one-bead-one-compound library” (Nature Communications, 2020).
Where a SMILES comes first, the peptide text is derived from it. [ ]: non-standard residue; d: D form. The star is where a group is joined. NHCH2CH2OH = OCCN*; For = O=C*

How the values were obtained:
[1] = H+/Na+ transport assay of bead-derived peptides (one-point); format: biochemical; design: key: relative activity; mean of two control wells = 1.00; conditions: bead-derived peptide solution, EYPC/EYPG LUVs;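 also: relative to parent gramicidin A activity set to 1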
Procedure, shortened: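 One-point screen: peptide + pyranine-loaded LUVs, 30 min RT with vortexing, 96-well. Read-out is fluorescence intensity scaled as 100 × (Ix – I0)/(Imax – I0). Imax from Triton X-100, I0 from untreated vesicles, and the mean of the two control wells is set to 1.00.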

[2] = tested on: Streptococcus pyogenes SSI-9; test: Antibacterial activity assay of bead-derived peptides (three concentrations); format: cell-based; design: key: +++: inhibition by the 640-fold diluted peptide solution; ++: inhibition by the 160-fold diluted solution; +: inhibition by the 40-fold diluted solution; -: no inhibition; conditions: S. pyogenes, bead-derived peptide solution, three concentrations
Procedure, shortened: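 Library peptide stock applied undiluted, 4-fold and 16-fold diluted in DMSO to S. pyogenes SSI-9 (2 × 10^5 CFU) in cation-adjusted Mueller Hinton broth with 5% laked horse blood. After 18 h at 37 °C, growth judged by visible cell precipitation.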

[3] = tested on: P388 mouse leukemia cells; conditions: 92 h
Procedure, shortened: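 P388 cells at 1 × 10^4 cells/mL (final) were exposed to library peptides (stocks diluted 250-fold in RPMI1640/10% FBS) for 92 h at 37 °C, 5% CO2. Viable cells were counted by WST-1/1-methoxy PMS (4 h), absorbance 415 nm, and expressed as cell viability (%).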

| SMILES | H+/Na+ transport activity normalized against the value of 1 (1.00) [1] | antibacterial activity [2] | cell viability/% [3] |
| --- | --- | --- | --- |
| CNC(=O)C[C@@H](NC(=O)[C@H](Cc1c[nH]c2ccccc12)NC(=O)[C@H](NC(=O)[C@H](Cc1c[nH]c2ccccc12)NC(=O)[C@H](NC(=O)[C@H](Cc1c[nH]c2ccccc12)NC(=O)[C@@H](CC(C)C)NC(=O)[C@@H](NC(=O)[C@H](NC(=O)[C@H](C)NC(=O)[C@H](NC(=O)[C@H](C)NC(=O)CNC(=O)[C@@H](NC=O)C(C)C)C(C)C)C(C)C)C(C)C)C(C)C)C(C)C)C(=O)N[C@@H](Cc1c[nH]c2ccccc12)C(=O)NCCO [compound 5604] (For-VGA[dV]A[dV]V[dL]W[dV]W[dV]W[dD](NHMe)W-NHCH2CH2OH) | 1.03 | - | 69.7% |
| CC(C)C[C@@H](NC(=O)[C@H](C)NC(=O)CNC(=O)[C@@H](NC=O)C(C)C)C(=O)N[C@@H](C)C(=O)N[C@@H](C(=O)N[C@H](C(=O)N[C@@H](C(=O)N[C@@H](Cc1c[nH]c2ccccc12)C(=O)N[C@H](CC(C)C)C(=O)N[C@@H](Cc1c[nH]c2ccccc12)C(=O)N[C@H](CC(C)C)C(=O)N[C@@H](Cc1c[nH]c2ccccc12)C(=O)N[C@H](CC(C)C)C(=O)N[C@@H](Cc1c[nH]c2ccccc12)C(=O)NCCO)C(C)C)C(C)C)C(C)C [compound 12972] (For-VGA[dL]A[dV]V[dV]W[dL]W[dL]W[dL]W-NHCH2CH2OH) | 1.33 | ++ | 0.0% |
| CC(C)C[C@@H](NC(=O)[C@H](Cc1c[nH]c2ccccc12)NC(=O)[C@H](NC(=O)[C@H](Cc1c[nH]c2ccccc12)NC(=O)[C@@H](CC(C)C)NC(=O)[C@@H](NC(=O)[C@H](NC(=O)[C@H](C)NC(=O)[C@H](NC(=O)[C@H](C)NC(=O)CNC(=O)[C@@H](NC=O)C(C)C)C(C)C)C(C)C)C(C)C)C(C)C)C(=O)N[C@@H](Cc1c[nH]c2ccccc12)C(=O)N[C@@H](C(=O)N[C@@H](Cc1c[nH]c2ccccc12)C(=O)NCCO)C(C)C [compound 5526] (For-VGA[dV]A[dV]V[dL]W[dV]W[dL]W[dV]W-NHCH2CH2OH) | 1.17 | + | 100.0% |
| CNC(=O)C[C@@H](NC(=O)[C@@H](NC(=O)[C@H](NC(=O)[C@H](C)NC(=O)[C@H](NC(=O)[C@H](C)NC(=O)CNC(=O)[C@@H](NC=O)C(C)C)C(C)C)C(C)C)C(C)C)C(=O)N[C@@H](Cc1c[nH]c2ccccc12)C(=O)N[C@@H](C(=O)N[C@@H](Cc1c[nH]c2ccccc12)C(=O)N[C@H](CC(C)C)C(=O)N[C@@H](Cc1c[nH]c2ccccc12)C(=O)N[C@H](CC(C)C)C(=O)N[C@@H](Cc1c[nH]c2ccccc12)C(=O)NCCO)C(C)C [compound 2898] (For-VGA[dV]A[dV]V[dD](NHMe)W[dV]W[dL]W[dL]W-NHCH2CH2OH) | 1.13 | - | 100.0% |
| CC(C)C[C@@H](NC(=O)[C@H](Cc1c[nH]c2ccccc12)NC(=O)[C@H](NC(=O)[C@H](Cc1c[nH]c2ccccc12)NC(=O)[C@@H](CC(C)C)NC(=O)[C@@H](NC(=O)[C@H](NC(=O)[C@H](C)NC(=O)[C@H](NC(=O)[C@H](C)NC(=O)CNC(=O)[C@@H](NC=O)C(C)C)C(C)C)C(C)C)C(C)C)C(C)C)C(=O)N[C@@H](Cc1c[nH]c2ccccc12)C(=O)N[C@@H](C(=O)N[C@@H](Cc1c[nH]c2ccccc12)C(=O)NCCO)C(C)C [compound 12947] (For-VGA[dV]A[dV]V[dL]W[dV]W[dL]W[dV]W-NHCH2CH2OH) | 1.02 | + | 10.2% |
| CNC(=O)C[C@@H](NC(=O)[C@@H](NC(=O)[C@@H](CC(C)C)NC(=O)[C@H](C)NC(=O)[C@H](NC(=O)[C@H](C)NC(=O)CNC(=O)[C@@H](NC=O)C(C)C)C(C)C)C(C)C)C(=O)N[C@@H](Cc1c[nH]c2ccccc12)C(=O)N[C@@H](C(=O)N[C@@H](Cc1c[nH]c2ccccc12)C(=O)N[C@@H](C(=O)N[C@@H](Cc1c[nH]c2ccccc12)C(=O)N[C@@H](C(=O)N[C@@H](Cc1c[nH]c2ccccc12)C(=O)NCCO)C(C)C)C(C)C)C(C)C [compound 8459] (For-VGA[dV]A[dL]V[dD](NHMe)W[dV]W[dV]W[dV]W-NHCH2CH2OH) | 1.03 | - | 47.5% |
| CNC(=O)C[C@@H](NC(=O)[C@@H](NC(=O)[C@@H](CC(C)C)NC(=O)[C@H](C)NC(=O)[C@@H](CC(C)C)NC(=O)[C@H](C)NC(=O)CNC(=O)[C@@H](NC=O)C(C)C)C(C)C)C(=O)N[C@@H](Cc1c[nH]c2ccccc12)C(=O)N[C@H](CC(C)C)C(=O)N[C@@H](Cc1c[nH]c2ccccc12)C(=O)N[C@@H](C(=O)N[C@@H](Cc1c[nH]c2ccccc12)C(=O)N[C@H](CC(C)C)C(=O)N[C@@H](Cc1c[nH]c2ccccc12)C(=O)NCCO)C(C)C [compound 173] (For-VGA[dL]A[dL]V[dD](NHMe)W[dL]W[dV]W[dL]W-NHCH2CH2OH) | 1.07 | - | 100.0% |
| CC(C)C[C@@H](NC(=O)[C@H](C)NC(=O)[C@H](NC(=O)[C@H](C)NC(=O)CNC(=O)[C@@H](NC=O)C(C)C)C(C)C)C(=O)N[C@H](C(=O)N[C@@H](C(=O)N[C@@H](Cc1c[nH]c2ccccc12)C(=O)N[C@H](CC(C)C)C(=O)N[C@@H](Cc1c[nH]c2ccccc12)C(=O)N[C@@H](C(=O)N[C@@H](Cc1c[nH]c2ccccc12)C(=O)N[C@@H](C(=O)N[C@@H](Cc1c[nH]c2ccccc12)C(=O)NCCO)C(C)C)C(C)C)[C@H](C)O)C(C)C [compound 3375] (For-VGA[dV]A[dL]V[dT]W[dL]W[dV]W[dV]W-NHCH2CH2OH) | 1.29 | - | 100.0% |
| CC(C)C[C@@H](NC(=O)[C@H](Cc1c[nH]c2ccccc12)NC(=O)[C@H](NC(=O)[C@@H](NC(=O)[C@H](NC(=O)[C@H](C)NC(=O)[C@H](NC(=O)[C@H](C)NC(=O)CNC(=O)[C@@H](NC=O)C(C)C)C(C)C)C(C)C)C(C)C)C(C)C)C(=O)N[C@@H](Cc1c[nH]c2ccccc12)C(=O)N[C@H](CC(C)C)C(=O)N[C@@H](Cc1c[nH]c2ccccc12)C(=O)N[C@@H](C(=O)N[C@@H](Cc1c[nH]c2ccccc12)C(=O)NCCO)[C@H](C)O [compound 5172] (For-VGA[dV]A[dV]V[dV]W[dL]W[dL]W[dT]W-NHCH2CH2OH) | 1.27 | ++ | 100.0% |
| CC(C)C[C@@H](NC(=O)[C@H](C)NC(=O)CNC(=O)[C@@H](NC=O)C(C)C)C(=O)N[C@@H](C)C(=O)N[C@@H](C(=O)N[C@H](C(=O)N[C@@H](C(=O)N[C@@H](Cc1c[nH]c2ccccc12)C(=O)N[C@@H](C(=O)N[C@@H](Cc1c[nH]c2ccccc12)C(=O)N[C@H](CC(C)C)C(=O)N[C@@H](Cc1c[nH]c2ccccc12)C(=O)N[C@@H](C(=O)N[C@@H](Cc1c[nH]c2ccccc12)C(=O)NCCO)C(C)C)C(C)C)[C@H](C)O)C(C)C)C(C)C [compound 5167] (For-VGA[dL]A[dV]V[dT]W[dV]W[dL]W[dV]W-NHCH2CH2OH) | 1.33 | - | 100.0% |
| CC(C)C[C@@H](NC(=O)[C@H](C)NC(=O)[C@H](NC(=O)[C@H](C)NC(=O)CNC(=O)[C@@H](NC=O)C(C)C)C(C)C)C(=O)N[C@H](C(=O)N[C@@H](C(=O)N[C@@H](Cc1c[nH]c2ccccc12)C(=O)N[C@H](CC(C)C)C(=O)N[C@@H](Cc1c[nH]c2ccccc12)C(=O)N[C@@H](C(=O)N[C@@H](Cc1c[nH]c2ccccc12)C(=O)N[C@H](CC(C)C)C(=O)N[C@@H](Cc1c[nH]c2ccccc12)C(=O)NCCO)C(C)C)C(C)C)C(C)C [compound 7146] (For-VGA[dV]A[dL]V[dV]W[dL]W[dV]W[dL]W-NHCH2CH2OH) | 1.17 | + | 100.0% |
| CC(C)C[C@@H](NC(=O)[C@H](C)NC(=O)[C@H](NC(=O)[C@H](C)NC(=O)CNC(=O)[C@@H](NC=O)C(C)C)[C@H](C)O)C(=O)N[C@H](C(=O)N[C@H](CC(C)C)C(=O)N[C@@H](Cc1c[nH]c2ccccc12)C(=O)N[C@H](CC(C)C)C(=O)N[C@@H](Cc1c[nH]c2ccccc12)C(=O)N[C@@H](C(=O)N[C@@H](Cc1c[nH]c2ccccc12)C(=O)N[C@H](CC(C)C)C(=O)N[C@@H](Cc1c[nH]c2ccccc12)C(=O)NCCO)C(C)C)C(C)C [compound 1516] (For-VGA[dT]A[dL]V[dL]W[dL]W[dV]W[dL]W-NHCH2CH2OH) | 1.06 | - | 100.0% |
| CC(C)C[C@@H](NC(=O)[C@H](Cc1c[nH]c2ccccc12)NC(=O)[C@H](NC(=O)[C@H](Cc1c[nH]c2ccccc12)NC(=O)[C@H](NC(=O)[C@H](Cc1c[nH]c2ccccc12)NC(=O)[C@H](NC(=O)[C@@H](NC(=O)[C@H](NC(=O)[C@H](C)NC(=O)[C@H](NC(=O)[C@H](C)NC(=O)CNC(=O)[C@@H](NC=O)C(C)C)C(C)C)C(C)C)C(C)C)C(C)C)C(C)C)C(C)C)C(=O)N[C@@H](Cc1c[nH]c2ccccc12)C(=O)NCCO [compound 12606] (For-VGA[dV]A[dV]V[dV]W[dV]W[dV]W[dL]W-NHCH2CH2OH) | 1.05 | - | 100.0% |
